# Measurements from patent US7741287B2, “Peptides for the treatment of herpes virus infections” (IPF PharmaCeuticals GmbH, priority 2004, dated 2010).
# Where no end group is shown, it is not given here.
# Tested on: HSV-2
# Assay type: cell-based, herpes simplex virus type 2 (HSV-2)
# Conditions: ELVIS cell infection assay; virus not given
sequence,measurement,value
VCVLAHHFGKEF [VCVLAHHFGKEF (SEQ ID NO:2)],antiviral activity in cellular infection assay,high activity
